Here are results for two molecules from paper PMC11272611, “Phase Ib and pharmacokinetics study of alpelisib, a PIK3CA inhibitor, and capecitabine in patients with advanced solid tumors” (Frontiers in Oncology, 2024).

Where two headings read alike, the source gives them in different places.

The subject of data set [1] is advanced solid malignancies with PIK3CA alterations. Set-up: method as in PMID 29401002. As to conditions: single-agent alpelisib, once daily; first-in-human phase I; cited from earlier work.
Data set [2] in a line: Pharmacokinetics of alpelisib and capecitabine in plasma (LC-MS/MS, non-compartmental). The format is in vivo, human. Particulars: for half-life / AUC(0-t) / Cmax: mean (range); for AUC(0-t): read-out: AUC0-6h; for AUC: range across dose escalation (dose levels 0 to 2), read-out: area under the concentration-time-curve (AUC). The protocol:
The pharmacokinetic (PK) analysis was conducted in all patients who received at least one dose of alpelisib and capecitabine combination therapy. Blood samples were collected at specified time points, including pre-dose, 1, 2, 4, and 6 hours post-dose, on day 1 of cycle 1. Measurements of alpelisib and capecitabine were carried out with a validated LC-MS/MS assay. PK parameters, including maximum plasma concentration (Cmax), time to reach maximum plasma concentration (tmax), area under the plasma concentration-time curve (AUC), and elimination half-life (t1/2), were calculated using non-compartmental methods. […] The data were presented as the mean (range) and standard deviation (SD).

On the set-up of data set [3]: method as in PMID 21332655. Particulars: monotherapy, salvage regimens in Korea, retrospective data; cited from earlier work.
[4] abbreviates: human, plasma, oral, Dose level 0 (n=3): alpelisib 200mg+capecitabine 1000mg/m^2, day 1 of cycle 1.
The mark [5] stands for this setting: human, plasma, oral, Dose level 0 (n=3): alpelisib 200mg+capecitabine 1000mg/m^2, plasma, day 1 of cycle 1.
Where [6] appears, read: human, plasma, oral, Dose level 1 (n=6): alpelisib 300mg+capecitabine 1000mg/m^2, day 1 of cycle 1.
The mark [7] stands for this setting: human, plasma, oral, Dose level 1 (n=6): alpelisib 300mg+capecitabine 1000mg/m^2, plasma, day 1 of cycle 1.
[8] abbreviates: human, plasma, oral, across dose levels 0, 1 and 2, read-out: time to reach peak concentration (tmax).

`Cc1nc(NC(=O)N2CCC[C@H]2C(N)=O)sc1-c1ccnc(C(C)(C)C(F)(F)F)c1` [alpelisib]: in data set [1], the MTD is 400 mg. For the same molecule, the Tmax is 2 ± 0.6 h in data set [2] (Dose level 0 (n=3): alpelisib 200mg+capecitabine 1000mg/m^2, day 1 of cycle 1, ± SD); 4 ± 1.8 h in data set [2] (Dose level 1 (n=6): alpelisib 300mg+capecitabine 1000mg/m^2, day 1 of cycle 1, ± SD); 2 to 4 h in data set [2] (setting [8]). Moreover, in data set [2] (co-administration in patients), the “Alpelisib exposure (Cmax and AUC0-12) with concomitant capecitabine” value is given as “unaffected”. Moreover, the half-life in data set [2] (setting [4]) was 6.5 h; in data set [2] (setting [6]) it was 9.29 h. The AUC(0-t) in data set [2] (setting [4]) was 4930 ng·h/mL; in data set [2] (setting [6]), 5070 ng·h/mL. The peak concentration (Cmax) in data set [2] (setting [5]) turned out to be 1170 ng/mL; in data set [2] (setting [7]) it was 1240 ng/mL. In addition, in data set [2] (human, plasma, oral), the AUC lay in the range of 4930 to 8190 ng·h/mL.

As for `CCCCCOC(=O)Nc1nc(=O)n([C@@H]2O[C@H](C)[C@@H](O)[C@H]2O)cc1F` [capecitabine], in data set [3], the disease control rate is 60%. Further, the results for the half-life in data set [2] (setting [4]) and in data set [2] (setting [6]) were 0.89 h and 0.63 h, respectively. The values for the AUC(0-t) in data set [2] (setting [4]) and in data set [2] (setting [6]) were 2670 ng·h/mL and 6000 ng·h/mL, respectively. Further, the Cmax in data set [2] (setting [5]) is 2500 ng/mL; in data set [2] (setting [7]), 4160 ng/mL. For the same molecule, the Tmax was 2 h in data set [2] (human, plasma, oral, Dose level 1 (n=6): alpelisib 300mg+capecitabine 1000mg/m^2, day 1 of cycle 1, ± SD, read-out: tmax) and 1 to 2 h in data set [2] (setting [8]). Besides, the AUC in data set [2] (human, plasma, oral) was 2670 to 8710 ng·h/mL.

As a reminder, the half-life is the time in which the quantity being followed falls by half. As a reminder, the Cmax is the maximum level reached in the sampled fluid or tissue.
